Measurements published in patent US20230355597A1, “COMPOUNDS, COMPOSITIONS, AND METHODS FOR THE TREATMENT AND PREVENTION OF AVIAN PATHOGENIC E. COLI (APEC)” (OHIO STATE INNOVATION FOUNDATION, priority 2018, published 2023).
Marks after values point to notes of the source that are not given here.

Assays:
APEC O1-63 = type: cell-based, avian pathogenic Escherichia coli (APEC); conditions: APEC O1-63, M63 media; MIC/MBC
[1] = test system: intracellular APEC O78 in THP-1 cells; assay: Intracellular survival assay (cidal SMs); conditions: O78, THP-1, 6 h treatment; superscript = multiple of MIC
[2] = test system: intracellular APEC O2 in Caco-2 cells; assay: Intracellular survival assay (cidal SMs); conditions: O2, Caco-2, 6 h treatment; superscript = multiple of MIC
APEC O15 = type: cell-based, avian pathogenic Escherichia coli (APEC); conditions: APEC O15, M63 media; MIC/MBC
[3] = test system: intracellular APEC O1 in HD11 cells; assay: Intracellular survival assay (cidal SMs); conditions: O1, HD11, 6 h treatment; superscript = multiple of MIC
[4] = test system: intracellular APEC O2 in THP-1 cells; assay: Intracellular survival assay (cidal SMs); conditions: O2, THP-1, 6 h treatment; superscript = multiple of MIC
APEC O1 = type: cell-based, avian pathogenic Escherichia coli (APEC); conditions: APEC O1, M63 media; MIC/MBC
APEC O78 [5] = assay: Confocal microscopy bacterial cytological profiling; type: cell-based, avian pathogenic Escherichia coli (APEC); conditions: 2X MBC
Experimental: Confocal and scanning electron microscopy. Confocal microscopy was used for bacterial cytological profiling (BCP) to identify the cellular pathways targeted by SMs as described previously. […] After incubation, treated cultures were centrifuged, washed, and resuspended in 100 μL PBS. […] Cultures were then centrifuged, washed, and resuspended in PBS to 1⁄10th volume of the original cultures.

Rif^r APEC O78 = assay: In vivo efficacy of growth inhibitors in APEC infected broiler chickens
[6] = test system: intracellular APEC O1 in THP-1 cells; assay: Intracellular survival assay (cidal SMs); conditions: O1, THP-1, 6 h treatment; superscript = multiple of MIC
[7] = test system: intracellular APEC O78 in Caco-2 cells; assay: Intracellular survival assay (cidal SMs); conditions: O78, Caco-2, 6 h treatment; superscript = multiple of MIC
APEC O78 [8] = assay: Loss of 260/280 nm absorbing materials assay; type: cell-based, avian pathogenic Escherichia coli (APEC); conditions: 2X MBC, 1 h, *P<0.05 vs DMSO; for Absorbance 260: 260 nm absorbing material in supernatant; for Absorbance 280: 280 nm absorbing material in supernatant
APEC O78-53 = type: cell-based, avian pathogenic Escherichia coli (APEC); conditions: APEC O78-53, M63 media; MIC/MBC
APEC O8 = type: cell-based, avian pathogenic Escherichia coli (APEC); conditions: APEC O8, M63 media; MIC/MBC
[9] = test system: biofilm embedded APEC O78; assay: MBEC High-throughput assay; type: cell-based, avian pathogenic Escherichia coli (APEC); conditions: biofilm embedded APEC O78; superscript = multiple of MIC (footnote)
APEC O2 = type: cell-based, avian pathogenic Escherichia coli (APEC); conditions: APEC O2, M63 media; MIC/MBC
[10] = Pilot experiment in chickens; type: in vivo, chicken
[11] = test system: intracellular APEC O1 in Caco-2 cells; assay: Intracellular survival assay (cidal SMs); conditions: O1, Caco-2, 6 h treatment; superscript = multiple of MIC
APEC O18 = type: cell-based, avian pathogenic Escherichia coli (APEC); conditions: APEC O18, M63 media; MIC/MBC
APEC O35 = type: cell-based, avian pathogenic Escherichia coli (APEC); conditions: APEC O35, M63 media; MIC/MBC
[12] = test system: intracellular APEC O78 in HD11 cells; assay: Intracellular survival assay (cidal SMs); conditions: O78, HD11, 6 h treatment; superscript = multiple of MIC
APEC O2-211 = type: cell-based, avian pathogenic Escherichia coli (APEC); conditions: APEC O2-211, M63 media; MIC/MBC
APEC O115 = type: cell-based, avian pathogenic Escherichia coli (APEC); conditions: APEC O115, M63 media; MIC/MBC
APEC O78 [13] = type: cell-based, avian pathogenic Escherichia coli (APEC); conditions: APEC O78, M63 media; cell prints MIC/MBC
[14] = test system: intracellular APEC O2 in HD11 cells; assay: Intracellular survival assay (cidal SMs); conditions: O2, HD11, 6 h treatment; superscript = multiple of MIC
APEC O109 = type: cell-based, avian pathogenic Escherichia coli (APEC); conditions: APEC O109, M63 media; MIC/MBC
[15] = test system: AI-2 activity of APEC O18; assay: AI-2 bioluminescence indicator assay (V. harveyi BB170); conditions: APEC O18, 100 µM
[16] = test system: QS and virulence associated genes of APEC O78; assay: qRT-PCR of QS-regulated and virulence factors genes; type: cell-based, avian pathogenic Escherichia coli (APEC); conditions: 100 µM, 10 h
AI-2 activity of APEC O2 = assay: AI-2 bioluminescence indicator assay (V. harveyi BB170); conditions: APEC O2, 100 µM
APEC O1 in HD-11 cells = assay: Intracellular survival assay (AI-2 inhibitors); conditions: O1, HD-11, 100 µM, 6 h
[17] = test system: AI-2 activity of APEC O109; assay: AI-2 bioluminescence indicator assay (V. harveyi BB170); conditions: APEC O109, 100 µM
[18] = test system: AI-2 activity of APEC O78; assay: as above; conditions: APEC O78, 100 µM
AI-2 activity of APEC O1 = assay: as above; conditions: APEC O1, 100 µM
[19] = test system: AI-2 activity of APEC O35; assay: as above; conditions: APEC O35, 100 µM
[20] = test system: AI-2 activity of APEC O15; assay: as above; conditions: APEC O15, 100 µM
AI-2 activity of APEC O8 = assay: as above; conditions: APEC O8, 100 µM
[21] = test system: AI-2 activity of APEC O115; assay: as above; conditions: APEC O115, 100 µM

CCCCCCCCCCCCCCCC[n+]1ccn(CC#N)c1 [SM6]
MBC (APEC O1-63): 25 µM
MIC (APEC O1-63): 12.5 µM
SMs intracellular APEC clearance concentration [1]: 50^c µM
SMs intracellular APEC clearance concentration [2]: 100^d µM
MBC (APEC O15): 25 µM
MIC (APEC O15): 12.5 µM
SMs intracellular APEC clearance concentration [3]: 100^d µM
SMs intracellular APEC clearance concentration [4]: 50^c µM
MBC (APEC O1): 25 µM
MIC (APEC O1): 12.5 µM
cytological profile (confocal, FM4-64 / SYTO-9) (APEC O78 [5]): membrane disruptors
reduction of average APEC load in internal organs (Rif^r APEC O78; average of liver, heart, lung and kidney, vs untreated control): 1.4 logs
cumulative lesions score (Rif^r APEC O78; liver, heart, lung and air-sacs, untreated 6.2): 5.4
reduction of APEC induced mortality (Rif^r APEC O78; oral gavage twice a day, 5 days, untreated mortality (58.34%) normalized to 100%): 42.86%
reduction of APEC lesions severity (%), Air-sacs (airsacculitis) (Rif^r APEC O78; untreated control = 100%): -41.2%
reduction of APEC lesions severity (%), Heart (pericarditis) (Rif^r APEC O78; untreated control = 100%): 20%
reduction of APEC lesions severity (%), Lung (lung congestion) (Rif^r APEC O78; untreated control = 100%): 33.3%
reduction of APEC load, Heart (Rif^r APEC O78; vs untreated control): 1.3 log CFU/g of tissues
reduction of APEC load, Kidney (Rif^r APEC O78; vs untreated control): 1.9 log CFU/g of tissues
reduction of APEC load, Liver (Rif^r APEC O78; vs untreated control): 1.2 log CFU/g of tissues
reduction of APEC load, Lung (Rif^r APEC O78; vs untreated control): 1.2 log CFU/g of tissues
Body weight gain (BWG) (Rif^r APEC O78; weight of live chickens before necropsy minus weight before treatment): 222.18±54.01
SMs intracellular APEC clearance concentration [6]: 100^d µM
SMs intracellular APEC clearance concentration [7]: 50^c µM
Absorbance 260 (APEC O78 [8]): 3.99*
Absorbance 280 (APEC O78 [8]): 2.69*
MBC (APEC O78-53): 25 µM
MIC (APEC O78-53): 12.5 µM
MBC (APEC O8): 12.5 µM
MIC (APEC O8): 12.5 µM
MBEC [9]: 12.5^a µM
MBC (APEC O2): 25 µM
MIC (APEC O2): 25 µM
impact on chicken health and performance [10]: no negative impact
SMs intracellular APEC clearance concentration [11]: 100^d µM
MBC (APEC O18): 25 µM
MIC (APEC O18): 12.5 µM
MBC (APEC O35): 25 µM
MIC (APEC O35): 12.5 µM
SMs intracellular APEC clearance concentration [12]: 50^c µM
MBC (APEC O2-211): 12.5 µM
MIC (APEC O2-211): 12.5 µM
MBC (APEC O115): 25 µM
MIC (APEC O115): 12.5 µM
MBC (APEC O78 [13]): 25 µM
MIC (APEC O78 [13]): 12.5 µM
SMs intracellular APEC clearance concentration [14]: 50^c µM
MBC (APEC O109): 12.5 µM
MIC (APEC O109): 12.5 µM

NC(=O)c1ccccc1Nc1cccc(C(F)(F)F)c1 [C3, 2-[[3-(trifuoromethyl)phenyl]amino]benzamide]
Inhibition % of AI-2 activity [15]: 8%
expression of fpr [16]: down-regulated
Inhibition % of AI-2 activity (AI-2 activity of APEC O2): 54%
clearance of intracellular APEC (APEC O1 in HD-11 cells): 100%
reduction of intracellular survival (APEC O1 in HD-11 cells; vs DMSO): 4 logs
Inhibition % of AI-2 activity [17]: 0%
Inhibition % of AI-2 activity [18]: 78%
Inhibition % of AI-2 activity (AI-2 activity of APEC O1): 65%
Inhibition % of AI-2 activity [19]: 37%
Inhibition % of AI-2 activity [20]: 0%
Inhibition % of AI-2 activity (AI-2 activity of APEC O8): 39%
Inhibition % of AI-2 activity [21]: 35%

CCCCCCCCCCCCCCCCn1c[n+](C)c2ccccc21.[Br-] [SM5]
MBC (APEC O1-63): 25 µM
MIC (APEC O1-63): 12.5 µM
SMs intracellular APEC clearance concentration [1]: 50^c µM
SMs intracellular APEC clearance concentration [2]: 100^d µM
MBC (APEC O15): 12.5 µM
MIC (APEC O15): 12.5 µM
SMs intracellular APEC clearance concentration [3]: 100^d µM
SMs intracellular APEC clearance concentration [4]: 50^c µM
MBC (APEC O1): 12.5 µM
MIC (APEC O1): 12.5 µM
cytological profile (confocal, FM4-64 / SYTO-9) (APEC O78 [5]): membrane disruptors
SMs intracellular APEC clearance concentration [6]: 100^d µM
SMs intracellular APEC clearance concentration [7]: 50^c µM
Absorbance 260 (APEC O78 [8]): 4.00*
Absorbance 280 (APEC O78 [8]): 2.67*
MBC (APEC O78-53): 12.5 µM
MIC (APEC O78-53): 12.5 µM
MBC (APEC O8): 12.5 µM
MIC (APEC O8): 12.5 µM
MBEC [9]: 25^c µM
MBC (APEC O2): 25 µM
MIC (APEC O2): 12.5 µM
impact on chicken health and performance [10]: no negative impact
SMs intracellular APEC clearance concentration [11]: 100^d µM
MBC (APEC O18): 12.5 µM
MIC (APEC O18): 12.5 µM
MBC (APEC O35): 25 µM
MIC (APEC O35): 12.5 µM
SMs intracellular APEC clearance concentration [12]: 50^c µM
MBC (APEC O2-211): 12.5 µM
MIC (APEC O2-211): 12.5 µM
MBC (APEC O115): 12.5 µM
MIC (APEC O115): 12.5 µM
MBC (APEC O78 [13]): 25 µM
MIC (APEC O78 [13]): 12.5 µM
SMs intracellular APEC clearance concentration [14]: 50^c µM
MBC (APEC O109): 12.5 µM
MIC (APEC O109): 12.5 µM
